Assay results taken from publication PMC12135943, “Beyond Barriers, Big Crystallization Hurdles: Atropisomerism in Beyond Rule of Five Compounds Explored by Computational and NMR Studies” (Molecular Pharmaceutics, 2025).
In brackets after ≈: the same amount, converted by molar mass. Where two headings read alike, the source gives them in different places.

How the values were obtained:
Type in all cases: physicochemical
[1] = Approximate solvent solubility (ASS); details: for solubility: organic solvents and solvent systems, 40 °C, organic solvent or mixture, thermodynamic from solid, stirring at 40 °C
Description: The approximate solubility of both compounds was determined in various organic solvents and solvent systems with a range of properties, including protic, aprotic, polar, and nonpolar solvents. Solubility tests were conducted under stirring at 40 °C, with concentrations ranging from 400 to 5 mg/mL. Solvents in which the solubility was below 5 mg/mL were classified as antisolvents. […]
Experimental procedures ACBI1:
Approximate solvent solubility (ASS):
Approximately 20.00 mg were weighed in HPLC vials, and a magnetic stirrer bar was inserted. Water bath temperature was set at 40 °C, and the initial 25 μL of the appropriate solvent was added into the vial. Stirring was initiated and the slurries were brought up to the desired set temperature. Observations were recorded and the next addition was performed according to the Table S1. The samples were stirred at 40 °C overnight, cooled down to ambient conditions and observations were recorded after 24 h.

[2] = Variable temperature NMR rotational barrier calculation (modified Eyring equation); details: for rotational energy barrier size: conclusion of NMR experiments
Description: This equation allows quick evaluation of the rotational energy barrier as follows: ΔG^‡=RTcoal[22.96+ln(Tcoal/δν)] where R is the universal gas constant [J/mol·K], T coal is the coalescence temperature [K], and δν is the difference of the Larmor frequencies in [Hz] for the two observed signals for the rotameric pair. The energy calculated using this equation is given in J/mol, which is then converted into kcal/mol.
^1H NMR spectra were recorded in a suitable deuterated solvent using a Bruker Avance IIIHD NMR spectrometer with a working base frequency of 400 MHz, equipped with a helium cryogenically cooled ^1H/^13C /^15N TCI probehead. The temperature limits of the probehead are from −40 °C up to 150 °C. The ^1H NMR experiments are recorded at a proton resonance frequency of 400.13 MHz, and 100.61 MHz was used for the ^13C frequency. The temperature is regulated using a Bruker Smart Variable temperature unit and calibrated using NMR-thermometer sample calibration. The assignment of the proton and carbon signals is performed using ^1H and ^13C NMR experiments, such as 1D ^1H, 1D ^13C, and 2D experiments: ^1H–^1H COSY, ^1H–^1H ROESY, ^1H–^13C HSQC, and ^1H–^13C HMBC. The chemical shifts (δH and δC) are reported in parts per million referenced to the 0.01% of nondeuterated signal of the deuterated solvent in the proton-based experiments and to the signal of the fully deuterated solvent signal in the carbon dimensions.
The evaluation of the energy barrier for the single bond rotation by experiment serves as key information for the crystallization properties of the bRo5-like molecules. Single one-dimensional proton measurements at various temperatures in 10 K steps allow the assessment of the coalescence temperature and the calculation of the rotational barrier energy, as described below. Both model compounds, ACBI1 and BI201335, show a clearly observable doubled signal set for some of the signals in the NMR spectra at 303 K. This could be attributed to presence of rotamers and/or diastereoisomers, as shown in Figure and Figure for ACBI1 and Figure and Figure for BI201335. The discernment of whether the multiple of signal sets is observed due to a slow convergence between two or more forms or the presence of diastereoisomers is most easily accessed by performing a two-dimensional proton ROESY experiment. […] At this temperature, the exchange between the proton signals could be clearly observed by the presence of cross peaks with the same phase as the diagonal peaks. The Nuclear Overhauser Enhancement (NOE) proximity cross peaks for small molecules have an antidiagonal phase. This serves as proof for the presence of rotamers with rotational barrier that could not be overcome at 303 K and therefore no exchange cross peaks are measured. […] In contrast to the ACBI1, in the ROESY spectrum at 303 K for BI201335 the exchange cross peaks are measurable.
The variable temperature NMR experiments were performed in the temperature range from 303 to 393 K with a 10 K step in between the experiments. In the case of BI201335 there are two rotameric signal pairs for which an attempt to calculate the rotational barrier could be performed. […] An estimation of the potential rotational barrier nevertheless allows an approximation within a range of energy barriers to be calculated: if the coalescence temperature was 393 K, the rotational barrier for this signal pair would be 18.8 kcal/mol. […] At the last measured point of 393 K (clearly below the experimental coalescence temperature), the rotational barrier would be 19.4 kcal/mol. At 423 K the calculated energy barrier would be 20.9 kcal/mol, and at 453 K it would be 22.4 kcal/mol. Based on the lack of exchange signals in the ROESY spectra at lower temperatures and the shape of the signals at 393 K, a coalescence temperature around 450 K seems most plausible. Thus, the rotational barrier for ACBI1 is estimated as 22.4 kcal/mol, with an error range of about 1–1.5 kcal/mol.

[3] = Dynamical vapor sorption (DVS); details: crystalline solvent-free form; 0-90% RH
Description: Dynamical vapor sorption data were recorded on a DVS intrinsic system from surface measurement systems (SMS) under a N2 atmosphere. Water sorption/desorption isotherms were recorded from 0% to 90% RH followed by an additional run from 90% to 0% RH in equal steps of 10% RH.

[4] = solvents in which the compound was soluble, read-out: approximate solubility in organic solvents

SMILES: Cc1ncsc1-c1ccc(CNC(=O)C2CC(O)CN2C(=O)C(NC(=O)C2(F)CC2)C(C)(C)C)c(OCCOc2ccc(CN3CCN(c4cc(-c5ccccc5O)nnc4N)CC3)cc2)c1 (centres unmarked) [ACBI1]
- hydrophobicity ([1]; from solvent solubility test (Table S1)): hydrophobic
- solubility ([1]; a few solvents classified as potential antisolvents, read-out: approximate solubility in antisolvents): < 5 mg/mL
- solubility [1, 4]: 50 to 400 mg/mL (≈ 53.4 to 427 mM)
- rotational barrier ([2]; calculated for 393 K, clearly below the coalescence temperature): 19.4 kcal/mol
- calculated energy barrier ([2]; calculated for 423 K): 20.9 kcal/mol
- calculated energy barrier ([2]; calculated for 453 K): 22.4 kcal/mol
- rotational energy barrier size [2]: above 20 kcal/mol
- rotational barrier (estimated) ([2]; error range of about 1–1.5 kcal/mol): 22.4 kcal/mol
- coalescence temperature (most plausible) ([2]; not reached at 393 K, estimated from signal shape and ROESY): around 450 K

SMILES: C=C[C@@H]1C[C@]1(NC(=O)[C@@H]1C[C@@H](Oc2cc(-c3csc(NC(=O)C(C)C)n3)nc3c(Br)c(OC)ccc23)CN1C(=O)[C@@H](NC(=O)OC1CCCC1)C(C)(C)C)C(=O)O [BI201335]
- solubility [1, 4]: 75 to 400 mg/mL (≈ 86.2 to 460 mM)
- rotational energy barrier size [2]: below 20 kcal/mol
- coalescence temperature ([2]; signal pair 4.46 and 4.76 ppm at 303 K): 393 K
- rotational barrier ([2]; signal pair 4.46 and 4.76 ppm, coalescence temperature 393 K): 18.9 kcal/mol
- rotational energy barrier ([2]; signal pair 4.62 and 4.95 ppm, estimated coalescence temperature 403 K): 19.3 kcal/mol
- rotational barrier ([2]; signal pair 4.62 and 4.95 ppm, if the coalescence temperature was 393 K (not reached)): 18.8 kcal/mol
- coalescence temperature (estimated) ([2]; signal pair 4.62 and 4.95 ppm, not converged at 393 K): around 403 K
- hygroscopicity (DVS isotherm plot) [3]: slight hygroscopicity
